Assay results published in ChEMBL document CHEMBL5226390, “Synthesis and Structure-Activity Analysis of Icaritin Derivatives as Potential Tumor Growth Inhibitors of Hepatocellular Carcinoma Cells” (J Nat Prod, 2023).
Converted amounts (≈) assume the structure as drawn. The source made the active and inactive calls. No cut-off for these calls is given here.

Assays:
[1] = test system: SMMC-7721; test: Induction of apoptosis in human SMMC-7721 cells assessed as necrotic cells at 2 uM incubated for 48 hrs by AnnexinV-FITC/PI staining based flow cytometry (reference value: 12.3%); format: functional
[2] = test system: SMMC-7721; test: Induction of cell cycle arrest in human SMMC-7721 cells assessed as accumulation of cells at S phase at 4 uM incubated for 48 hrs by PI staining based flow cytometry (reference value: 24.94%); format: functional
[3] = test system: HepG2; test: Induction of apoptosis in human HepG2 cells assessed as early apoptotic cells at 2 uM incubated for 48 hrs by AnnexinV-FITC/PI staining based flow cytometry (reference value: 3.41%); format: functional
[4] = test system: HepG2; test: Induction of cell cycle arrest in human HepG2 cells assessed as accumulation of cells at G0/G1 phase at 2 uM incubated for 48 hrs by PI staining based flow cytometry (reference value: 64.11%); format: functional
[5] = test system: SMMC-7721; test: Induction of apoptosis in human SMMC-7721 cells assessed as chromatin condensation and fragmentation at 2 to 8 uM incubated for 48 hrs by Hoechst 33258 staining based fluorescence microscopic analysis; format: functional, cell-based; conditions: dose 2-8 µM
[6] = test system: SMMC-7721; test: Induction of cell cycle arrest in human SMMC-7721 cells assessed as downregulation of p34 protein expression at 2 to 8 uM incubated for 48 hrs by western blot analysis; format: functional, cell-based; conditions: dose 2-8 µM
[7] = test system: SMMC-7721; test: Induction of apoptosis in human SMMC-7721 cells assessed as viable cells at 2 uM incubated for 48 hrs by AnnexinV-FITC/PI staining based flow cytometry (reference value: 85.1%); format: functional; conditions: read-out: Activity
[8] = test system: HepG2; test: Induction of apoptosis in human HepG2 cells assessed as late apoptotic cells at 4 uM incubated for 48 hrs by AnnexinV-FITC/PI staining based flow cytometry (reference value: 3.23%); format: functional
[9] = test system: SMMC-7721; test: Induction of apoptosis in human SMMC-7721 cells assessed as viable cells at 8 uM incubated for 48 hrs by AnnexinV-FITC/PI staining based flow cytometry (reference value: 85.1%); format: functional; conditions: read-out: Activity
[10] = test system: Hep 3B2; test: Antiproliferative activity against human Hep3B cells assessed as reduction in cell viability incubated for 48 hrs by MTT assay; format: functional, cell-based
[11] = Solubility of the compound in water incubated for 24 hrs under stirring conditions by HPLC analysis; format: physicochemical
[12] = test system: SMMC-7721; test: Induction of apoptosis in human SMMC-7721 cells assessed as late apoptotic cells at 2 uM incubated for 48 hrs by AnnexinV-FITC/PI staining based flow cytometry (reference value: 1.51%); format: functional
[13] = test system: HepG2; test: Induction of apoptosis in human HepG2 cells assessed as increase in number of detached cells with fewer cells at 2 to 8 uM incubated for 48 hrs by phase contrast microscopy; format: functional, cell-based; conditions: dose 2-8 µM
[14] = test system: SMMC-7721; test: Induction of apoptosis in human SMMC-7721 cells assessed as increase in number of detached cells with fewer cells at 2 to 8 uM incubated for 48 hrs by phase contrast microscopy; format: functional, cell-based; conditions: dose 2-8 µM
[15] = test system: SMMC-7721; test: Induction of cell cycle arrest in human SMMC-7721 cells assessed as downregulation of Cdc2 protein expression at 2 to 8 uM incubated for 48 hrs by western blot analysis; format: functional, cell-based; conditions: dose 2-8 µM
[16] = test system: SMMC-7721; test: Induction of cell cycle arrest in human SMMC-7721 cells assessed as accumulation of cells at G2/M phase at 8 uM incubated for 48 hrs by PI staining based flow cytometry (reference value: 15.49%); format: functional
[17] = test system: SMMC-7721; test: Induction of apoptosis in human SMMC-7721 cells assessed as necrotic cells at 4 uM incubated for 48 hrs by AnnexinV-FITC/PI staining based flow cytometry (reference value: 12.3%); format: functional
[18] = test system: HepG2; test: Induction of apoptosis in human HepG2 cells assessed as necrotic cells at 2 uM incubated for 48 hrs by AnnexinV-FITC/PI staining based flow cytometry (reference value: 2.22%); format: functional
[19] = test system: HepG2; test: Antiproliferative activity against human HepG2 cells assessed as reduction in cell viability incubated for 48 hrs by MTT assay; format: functional, cell-based; conditions: HepG2, 48 h
[20] = test system: HepG2; test: Induction of cell cycle arrest in human HepG2 cells assessed as upregulation of p21 protein expression at 2 to 8 uM incubated for 48 hrs by western blot analysis; format: functional, cell-based; conditions: dose 2-8 µM
[21] = test system: SMMC-7721; test: Induction of cell cycle arrest in human SMMC-7721 cells assessed as upregulation of p21 protein expression at 2 to 8 uM incubated for 48 hrs by western blot analysis; format: functional, cell-based; conditions: dose 2-8 µM
[22] = test system: SMMC-7721; test: Induction of apoptosis in human SMMC-7721 cells assessed as early apoptotic cells at 2 uM incubated for 48 hrs by AnnexinV-FITC/PI staining based flow cytometry (reference value: 1.13%); format: functional
[23] = test system: HepG2; test: Induction of cell cycle arrest in human HepG2 cells assessed as downregulation of CDK4 protein expression at 2 to 8 uM incubated for 48 hrs by western blot analysis; format: functional, cell-based; conditions: dose 2-8 µM
[24] = test system: HepG2; test: Induction of cell cycle arrest in human HepG2 cells assessed as accumulation of cells at S phase at 2 uM incubated for 48 hrs by PI staining based flow cytometry (reference value: 18%); format: functional
[25] = test system: HepG2; test: Induction of apoptosis in human HepG2 cells assessed as viable cells at 8 uM incubated for 48 hrs by AnnexinV-FITC/PI staining based flow cytometry (reference value: 91.1%); format: functional; conditions: read-out: Activity
[26] = test system: HepG2; test: Induction of cell cycle arrest in human HepG2 cells assessed as accumulation of cells at G2/M phase at 8 uM incubated for 48 hrs by PI staining based flow cytometry (reference value: 17.89%); format: functional
[27] = test system: SMMC-7721; test: Induction of cell cycle arrest in human SMMC-7721 cells assessed as accumulation of cells at G0/G1 phase at 2 uM incubated for 48 hrs by PI staining based flow cytometry (reference value: 59.57%); format: functional

solubility at 24 h [11]: 11.8 mg/mL (≈ 19.3 mM) | IC50 [19]: 7.6 µM
Structure (SMILES): COc1ccc(-c2oc3c(CC=C(C)C)c(OCCN4CCCC4)cc(O)c3c(=O)c2O[C@H]2O[C@H](C)[C@@H](O)[C@H](O)[C@@H]2O)cc1
Activity [1]: 2.96% | Activity [2]: 19.6% | Activity [3]: 1.52% | Activity [4]: 68.79% | Activity [5]: Active | Activity [6]: Active | viability at 2 µM [7]: 89.4% | Activity [8]: 5.47% | viability at 8 µM [9]: 66.2% | IC50 [10]: 3.9 µM | Activity [12]: 5.9% | Activity [13]: Active | Activity [14]: Active | Activity [15]: Active | Activity [16]: 8.88% | Activity [17]: 0.956% | Activity [18]: 8.93% | Activity [20]: Active | Activity [21]: Active | Activity [22]: 1.73% | Activity [23]: Active | Activity [24]: 13.7% | viability at 8 µM [25]: 62.2% | Activity [26]: 6.39% | Activity [27]: 63.01%
